Measurements as given in patent US20140243332A1, “METHODS OF TREATING CANCERS CHARACTERIZED BY ABERRENT ROS1 ACTIVITY” (Oregon Health & Science University, priority 2013, published 2014).

How the values were obtained:
[1] = target: T1, Ba/F3 FIG-ROS cells (Homo sapiens, UniProt P08922); assay: Apoptosis induction (Annexin V / 7-AAD), Ba/F3 FIG-ROS; assay type: cell-based; details: 15 nM, 48 hours
T1 construct: fused on or other part: GFP is co-expressed from an IRES in pMIG and is not fused; Q9HD26 (Golgi-associated PDZ and coiled-coil motif-containing protein)
T1 sequence (P08922 whole entry, change not shown, the tested form may be a part): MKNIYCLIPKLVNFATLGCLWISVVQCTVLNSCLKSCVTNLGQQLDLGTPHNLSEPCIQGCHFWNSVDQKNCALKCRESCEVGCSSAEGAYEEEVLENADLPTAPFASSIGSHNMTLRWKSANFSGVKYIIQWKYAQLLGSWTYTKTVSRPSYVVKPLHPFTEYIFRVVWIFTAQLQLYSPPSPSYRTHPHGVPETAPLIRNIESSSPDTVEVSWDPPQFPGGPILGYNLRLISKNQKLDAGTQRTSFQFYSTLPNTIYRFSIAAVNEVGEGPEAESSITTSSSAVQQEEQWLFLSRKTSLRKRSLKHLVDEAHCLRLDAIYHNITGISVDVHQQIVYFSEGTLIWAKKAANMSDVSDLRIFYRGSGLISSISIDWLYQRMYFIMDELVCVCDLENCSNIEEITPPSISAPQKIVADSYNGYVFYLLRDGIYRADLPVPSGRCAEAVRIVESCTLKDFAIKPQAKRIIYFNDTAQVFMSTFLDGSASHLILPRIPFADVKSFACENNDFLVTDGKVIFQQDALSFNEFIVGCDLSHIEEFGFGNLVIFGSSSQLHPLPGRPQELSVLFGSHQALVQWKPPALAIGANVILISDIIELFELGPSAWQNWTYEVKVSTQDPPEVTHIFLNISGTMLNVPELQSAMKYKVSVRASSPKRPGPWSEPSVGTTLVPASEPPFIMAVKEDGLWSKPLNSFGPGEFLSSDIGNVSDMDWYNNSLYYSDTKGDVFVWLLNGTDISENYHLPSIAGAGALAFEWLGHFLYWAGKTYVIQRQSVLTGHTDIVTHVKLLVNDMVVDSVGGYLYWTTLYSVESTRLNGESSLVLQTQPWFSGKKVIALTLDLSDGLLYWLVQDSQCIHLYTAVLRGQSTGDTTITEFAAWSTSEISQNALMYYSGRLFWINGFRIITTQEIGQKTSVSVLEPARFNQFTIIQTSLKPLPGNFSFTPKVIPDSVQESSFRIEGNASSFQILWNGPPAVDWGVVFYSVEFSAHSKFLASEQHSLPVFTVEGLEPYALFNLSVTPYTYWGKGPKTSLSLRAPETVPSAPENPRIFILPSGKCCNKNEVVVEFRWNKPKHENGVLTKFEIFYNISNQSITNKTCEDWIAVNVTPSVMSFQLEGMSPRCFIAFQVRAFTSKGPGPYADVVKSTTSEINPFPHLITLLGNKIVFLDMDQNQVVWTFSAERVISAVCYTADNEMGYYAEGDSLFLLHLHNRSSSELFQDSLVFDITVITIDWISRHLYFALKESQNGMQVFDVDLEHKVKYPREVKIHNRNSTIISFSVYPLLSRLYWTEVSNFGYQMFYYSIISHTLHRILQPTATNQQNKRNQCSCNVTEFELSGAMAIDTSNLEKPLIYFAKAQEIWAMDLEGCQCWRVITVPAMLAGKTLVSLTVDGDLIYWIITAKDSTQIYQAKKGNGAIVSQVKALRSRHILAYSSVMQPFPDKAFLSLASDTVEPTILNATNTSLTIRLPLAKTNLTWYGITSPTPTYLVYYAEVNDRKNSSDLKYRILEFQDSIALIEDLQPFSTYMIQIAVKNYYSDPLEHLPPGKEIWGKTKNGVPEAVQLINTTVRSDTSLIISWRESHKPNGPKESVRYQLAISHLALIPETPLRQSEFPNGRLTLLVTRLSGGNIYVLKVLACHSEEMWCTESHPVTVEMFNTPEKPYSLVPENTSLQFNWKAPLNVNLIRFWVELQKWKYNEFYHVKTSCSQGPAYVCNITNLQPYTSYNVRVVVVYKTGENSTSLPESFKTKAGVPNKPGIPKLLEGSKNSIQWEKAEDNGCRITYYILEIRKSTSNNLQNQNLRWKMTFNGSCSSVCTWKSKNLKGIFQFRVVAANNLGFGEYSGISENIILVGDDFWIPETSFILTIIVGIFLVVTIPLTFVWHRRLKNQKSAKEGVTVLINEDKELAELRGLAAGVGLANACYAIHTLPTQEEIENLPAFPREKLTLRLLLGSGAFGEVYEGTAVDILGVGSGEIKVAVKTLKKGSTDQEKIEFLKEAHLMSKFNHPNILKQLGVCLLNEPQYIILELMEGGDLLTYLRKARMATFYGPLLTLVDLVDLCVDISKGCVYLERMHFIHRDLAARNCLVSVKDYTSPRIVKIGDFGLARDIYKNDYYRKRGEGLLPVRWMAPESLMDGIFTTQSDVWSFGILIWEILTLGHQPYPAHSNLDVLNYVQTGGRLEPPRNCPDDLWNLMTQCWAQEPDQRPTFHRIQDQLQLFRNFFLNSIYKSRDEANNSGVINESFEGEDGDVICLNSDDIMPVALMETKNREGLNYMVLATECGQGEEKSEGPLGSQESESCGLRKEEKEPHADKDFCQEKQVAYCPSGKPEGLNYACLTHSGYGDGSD
Method: (§1) FIG. 5A is a set of three bar graphs depicting the induction of apoptosis in Ba/F3 FIG-ROS, Ba/F3 SLC-ROS and Ba/F3 ALK F1174L cells after 48 hours of treatment with the indicated doses of the indicated compounds. The number of cells that were Annexin V and 7-AAD positive after inhibitor treatment was normalized to number of cells staining positive with these markers with vehicle treatment (basal). A minimum of 2000 cells were counted per condition. Rate of apoptosis is shown as fold over basal. Basal apoptosis in Ba/F3 FIG-ROS, Ba/F3 SLC-ROS and Ba/F3 ALK F1174 cells was 3.6%, 2.8% and 1.2% respectively.

[2] = target: T2, Ba/F3 SLC-ROS cells (Homo sapiens, UniProt P08922); assay: Apoptosis induction (Annexin V / 7-AAD), Ba/F3 SLC-ROS; assay type: cell-based; details: 15 nM, 48 hours
T2 construct: SLC-ROS-S (SLC-ROS) was cloned from cDNA made from HCC78 cells; fused on or other part: GFP is co-expressed from an IRES in pMIG and is not fused; O95436 (Sodium-dependent phosphate transport protein 2B)
T2 sequence (P08922 whole entry, change not shown, the tested form may be a part): as above
Method: as §1

[3] = system: PC9 cells; assay: Cell viability assay, PC9; assay type: cell-based, human; details: PC9 cells (activated EGFR), FIG. 6B
Method: IC50 was determined from non-linear regression curve fit analysis of the dose response curves.

[4] = system: NIH3T3 FIG-ROS cells; assay: Soft agar colony formation, NIH3T3 FIG-ROS; assay type: cell-based; details: at lower doses than crizotinib
Text: The bottom panels are bar graphs indicating the number of colonies formed from the plates depicted in the top panels. The values indicate average colony number±SEM from 4 independent wells.

[5] = system: FIG-ROS cholangiocarcinoma tumor cells; assay: Anchorage-independent colony formation in soft agar, FIG-ROS cholangiocarcinoma cells; assay type: cell-based, murine; details: dose dependent
Text: […]. The values indicate the mean and the error bars indicate the standard error of the mean of 3 independent wells.
(§2) . The inhibition was dose dependent (FIG. 2B). […].

[6] = system: FIG-ROS and ROS-1 effector pathway phosphorylation; assay: Immunoblot of FIG-ROS tumor lysates after oral gavage; assay type: in vivo, mice; details: 25 mg/kg oral gavage
Method: FIG. 3D is an image of an immunoblot of tumor lysates probed for phosphorylated and total ROS1, phosphorylated and total Shpt, phosphorylated and total Stat3, phosphorylated and total Src as well as tubulin as a loading control.
(§3) Ba/F3 FIG-ROS, Ba/F3 SLC-ROS, HCC78 and mCC cell lines were treated with the indicated concentration of inhibitors for 1-2 hours. […] The protein content of the cell lysates was determined and lysates were either used for immunoprecipitation where indicated or extracted with SDS Sample buffer for 15 minutes at 80° C. Proteins were transferred to Immobilon-FL membranes and immunoblotted with antibodies specific for phospho-ROS1 (Cell Signaling Technology (CST) #3078), total ROS1 (CST #3266), phopsho-Shp2 (CST #3751), total Shpt (CST #3752), phospho-Stat3 (CST #9145), total Stat3 (CST #4904), phospho-Erk1/2 (CST #9101), total Erk2 (Santa Cruz #SC-1647), phospho-S6 (CST #4858), total S6 (CST #2216), phospho-Src (CST #2105), total Src (CST #2110), α-tubulin (Sigma T6199), or β-actin (Sigma A1978) as indicated. Images of the blots were generated by the LI-COR Odyssey® imaging system, following the manufacturer's protocol for immunoblot detection with use of IR-dye conjugated secondary antibodies.
Concomitant with diminished FIG-ROS activation, phosphorylation of Shpt and Stat3, but not Src is inhibited in the treated tumors.

[7] = target: Ba/F3 CD74-ROS G2032R mutant cells (Homo sapiens, UniProt P08922, G2032R, cells depend on it); assay: Cell growth assay, Ba/F3 CD74-ROS G2032R; assay type: cell-based; details: 72 hour exposure, read-out: IC50 (the source's name)
Ba/F3 CD74-ROS G2032R mutant cells, sequence (P08922 whole entry G2032R, the tested form may be a part): as the sequence (P08922 whole entry, change not shown, the tested form may be a part) above, with G2032R counted along it
Text: Data are shown as normalized to vehicle-treated cells. The values are means±SEM from three independent experiments performed in triplicate.

[8] = target: SLC-ROS (Homo sapiens, UniProt P08922); assay: Immunoblot of NIH3T3 SLC-ROS lysates; assay type: cell-based; set-up: SLC34A2 N-terminal portion, fusion partner; expressed in transfected cells; host or cells: Ba/F3 (A15) and NIH3T3 (A25), retroviral pMIG; the other entry of the earlier key: SLC34A2 (O95436, Sodium-dependent phosphate transport protein 2B); details: NIH3T3 SLC-ROS cells, 1 hour, at lower doses than crizotinib
SLC-ROS, sequence (P08922 with tags, fused parts or gaps): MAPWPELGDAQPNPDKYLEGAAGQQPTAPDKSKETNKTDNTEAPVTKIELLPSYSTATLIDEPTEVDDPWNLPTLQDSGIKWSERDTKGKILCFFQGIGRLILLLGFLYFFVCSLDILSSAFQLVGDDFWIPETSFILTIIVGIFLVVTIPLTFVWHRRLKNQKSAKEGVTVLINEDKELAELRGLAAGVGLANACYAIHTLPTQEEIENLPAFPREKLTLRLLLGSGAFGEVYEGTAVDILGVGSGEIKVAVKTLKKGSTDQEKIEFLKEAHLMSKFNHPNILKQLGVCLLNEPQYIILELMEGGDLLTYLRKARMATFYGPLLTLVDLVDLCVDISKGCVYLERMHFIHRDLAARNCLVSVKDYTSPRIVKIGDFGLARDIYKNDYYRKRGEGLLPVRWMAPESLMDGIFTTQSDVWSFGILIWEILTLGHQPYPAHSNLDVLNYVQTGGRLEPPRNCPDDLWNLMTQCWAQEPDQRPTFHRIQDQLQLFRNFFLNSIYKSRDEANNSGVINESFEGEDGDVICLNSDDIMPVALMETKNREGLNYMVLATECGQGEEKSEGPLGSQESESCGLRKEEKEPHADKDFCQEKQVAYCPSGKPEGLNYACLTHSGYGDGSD
Method: The parental Ba/F3 cell line was cultured in RPMI 1640 medium with 10% FBS, L-glutamine, penicillin/streptomycin and 15% WEHI-conditioned media. Ba/F3 cell lines were maintained at densities of 0.5×10^6 to 1.5×10^6 per ml of media. FIG-ROS and SLC-ROS Ba/F3 lines were created by infecting the parental Ba/F3 with retrovirus expressing either human FIG-ROS-S (indicated FIG-ROS herein) or SLC-ROS-S (indicated SLC-ROS herein). Stable transfectant lines were sorted for GFP expression on a FACS Aria® flow cytometer. Cells were counted daily using Guava ViaCount® reagent and Guava Personal Cell Analysis® flow cytometer. […] Early passage NIH3T3 cells were infected with retrovirus expressing either FIG-ROS or SLC-ROS and sorted for GFP expression as described above for Ba/F3 cells. HCC78 cells were cultured in RPMI 1640 medium with 10% FBS, L-glutamine, and penicillin/streptomycin. This media is referred to as RPMI-10% FBS herein.

[9] = target: FIG-ROS (Homo sapiens, UniProt P08922); assay: Immunoblot of FIG-ROS murine cholangiocarcinoma cell lysates; assay type: cell-based; set-up: expressed in transfected cells; host or cells: murine cholangiocarcinoma tumour cell lines (lines 3 and 4) derived from transduced mouse hepatoblasts; the other entry of the earlier key: GOPC (Q9HD26, Golgi-associated PDZ and coiled-coil motif-containing protein); details: 100 nM, FIG-ROS murine cholangiocarcinoma cells
FIG-ROS, sequence (P08922 with tags, fused parts or gaps): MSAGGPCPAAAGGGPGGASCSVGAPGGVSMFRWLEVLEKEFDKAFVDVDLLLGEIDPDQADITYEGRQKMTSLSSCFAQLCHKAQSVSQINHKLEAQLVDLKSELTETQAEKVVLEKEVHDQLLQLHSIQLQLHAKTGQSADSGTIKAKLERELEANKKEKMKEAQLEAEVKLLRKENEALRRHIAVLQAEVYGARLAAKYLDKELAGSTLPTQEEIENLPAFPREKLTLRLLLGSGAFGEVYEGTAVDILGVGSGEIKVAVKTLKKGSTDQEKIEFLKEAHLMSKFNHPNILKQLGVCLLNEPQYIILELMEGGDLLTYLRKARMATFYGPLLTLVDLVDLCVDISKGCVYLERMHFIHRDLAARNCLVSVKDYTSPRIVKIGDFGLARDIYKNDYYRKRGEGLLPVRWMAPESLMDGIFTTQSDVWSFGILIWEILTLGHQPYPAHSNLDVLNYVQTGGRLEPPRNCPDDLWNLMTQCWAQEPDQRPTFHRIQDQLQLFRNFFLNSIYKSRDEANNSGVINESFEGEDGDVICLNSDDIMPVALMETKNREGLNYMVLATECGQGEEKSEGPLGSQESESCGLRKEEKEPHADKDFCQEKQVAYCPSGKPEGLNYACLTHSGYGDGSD
Method: […]. Images shown are representative of three independent experiments.
as §3, §2

**Q.** For `COc1cc2c(Oc3ccc(NC(=O)C4(C(=O)Nc5ccc(F)cc5)CC4)cc3F)ccnc2cc1OCCCN1CCOCC1` [foretinib, N1′-[3-fluoro-4-[[6-methoxy-7-(3-morpholinopropoxy)-4-quinolyl]oxy]phenyl]-N1-(4-fluorophenyl)cyclopropane-1,1-dicarboxamide], which apoptosis induction [1] is on record?
**A.** induced apoptosis

**Q.** What about the apoptosis induction [2] of the same molecule?
**A.** induced apoptosis

**Q.** And the “sensitivity of cell growth” value [3]?
**A.** relatively insensitive

**Q.** And the anchorage-independent colony formation [4]?
**A.** strongly suppressed

**Q.** And the “anchorage-independent colonies in soft agar” value [5]?
**A.** inhibited

**Q.** What about the “intra-tumoral phosphorylation of Shpt and Stat3” value ([6]; FIG-ROS tumors) of the same molecule?
**A.** is inhibited

**Q.** What about the “intra-tumoral phosphorylation of Src” value ([6]; FIG-ROS tumors) of the same molecule?
**A.** but not Src

**Q.** What about the “intra-tumoral FIG-ROS phosphorylation” value ([6]; tumors harvested at 1, 2, 4 and 8 hours) of the same molecule?
**A.** Rapid and robust inhibition

**Q.** And the GI50 [7]?
**A.** 50 nM

**Q.** What about the SLC-ROS phosphorylation [8] of the same molecule?
**A.** strongly suppressed

**Q.** And the “auto-phosphorylation of FIG-ROS and phosphorylation of Shpt and ERK1/2” value [9]?
**A.** almost completely inhibited
